# Results from ChEMBL document CHEMBL1201862, “PubChem BioAssay data set” (2004).
# Structures can show the parent of a compound that is named as a salt. The source made the active and inactive calls.
# What was measured:
# [1] = biological target: T1, Probable nicotinate-nucleotide adenylyltransferase (Staphylococcus aureus (strain N315), UniProt P65502); assay type: functional, Staphylococcus aureus subsp. aureus N315;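 as to IC50 Mean: confirmatory dose-response retesting of NadD inhibitor hits first found in an ultra-high-throughput screen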
# [2] = biological target: T1, Probable nicotinate-nucleotide adenylyltransferase; assay type: functional, Staphylococcus aureus subsp. aureus N315; settings: read-out: IC50_Mean
# [3] = biological target: T2, DNA repair protein RAD52 homolog (Homo sapiens, UniProt P43351); assay type: functional, biochemical
# T2 sequence (P43351 whole entry): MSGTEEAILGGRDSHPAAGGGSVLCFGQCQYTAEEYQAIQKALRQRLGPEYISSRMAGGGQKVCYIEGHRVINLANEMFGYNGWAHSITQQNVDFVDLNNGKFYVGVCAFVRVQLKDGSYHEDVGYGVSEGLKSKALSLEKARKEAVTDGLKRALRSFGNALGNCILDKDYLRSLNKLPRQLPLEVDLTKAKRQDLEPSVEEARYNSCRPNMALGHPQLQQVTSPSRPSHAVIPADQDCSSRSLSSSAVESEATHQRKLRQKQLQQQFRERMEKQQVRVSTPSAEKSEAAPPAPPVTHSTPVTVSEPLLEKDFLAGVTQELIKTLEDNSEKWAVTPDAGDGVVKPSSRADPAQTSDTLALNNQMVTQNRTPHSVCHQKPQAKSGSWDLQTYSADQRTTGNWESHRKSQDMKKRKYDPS
# [4] = cytotoxicity in HPDE-C7 cells, cell-based, fluorescence, HTS (AID 430); assay type: functional; settings: Homo sapiens
# [5] = microbe, parasite or virus in culture; assay type: functional; settings: Mycobacterium tuberculosis
# [6] = cytotoxicity in KRAS-transformed pancreatic duct cells, primary screen, cell-based, fluorescence, HTS (AID 431); assay type: functional; settings: Homo sapiens;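 also: cell line used: HPDE-C7K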
# [7] = biological target: FAD-linked sulfhydryl oxidase ALR (Homo sapiens, UniProt P55789); experiment: inhibitors of human ALR sulfhydryl oxidase, dose response, biochemical, H2O2 detection, luminescence, cherry-pick (AID 493248)
# [8] = biological target: T3, High affinity choline transporter 1 (Homo sapiens, UniProt Q9GZV3); experiment: CHT inhibitors, dose response, cell-based, 5-point CRC, membrane potential dye (AID 504840); assay type: functional
# T3 sequence (Q9GZV3 whole entry): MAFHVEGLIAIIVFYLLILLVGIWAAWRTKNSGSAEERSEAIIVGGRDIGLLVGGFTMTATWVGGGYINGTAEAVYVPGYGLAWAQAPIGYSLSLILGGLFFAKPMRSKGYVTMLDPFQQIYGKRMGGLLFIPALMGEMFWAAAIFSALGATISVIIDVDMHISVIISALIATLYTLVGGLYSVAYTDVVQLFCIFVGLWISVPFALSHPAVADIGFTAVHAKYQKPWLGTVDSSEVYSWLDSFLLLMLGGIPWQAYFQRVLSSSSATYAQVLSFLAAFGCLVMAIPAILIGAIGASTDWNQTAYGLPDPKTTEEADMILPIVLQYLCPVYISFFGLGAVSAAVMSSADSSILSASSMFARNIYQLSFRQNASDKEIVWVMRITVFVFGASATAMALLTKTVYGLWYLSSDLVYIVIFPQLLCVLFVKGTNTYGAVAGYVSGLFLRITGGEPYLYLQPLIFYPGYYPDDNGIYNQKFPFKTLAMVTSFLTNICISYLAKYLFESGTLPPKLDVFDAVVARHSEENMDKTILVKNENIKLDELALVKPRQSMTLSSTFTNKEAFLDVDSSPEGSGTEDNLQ
# [9] = biological target: T4, Adenosylmethionine-8-amino-7-oxononanoate aminotransferase (Mycobacterium tuberculosis, UniProt P9WQ81); experiment: Mycobacterium tuberculosis BioA enzyme inhibitor Measured in Biochemical System Using Plate Reader - 2163-02_Inhibitor_Dose_CherryPick_Activity.; assay type: functional, Mycobacterium tuberculosis UT205
# T4 sequence (P9WQ81 whole entry): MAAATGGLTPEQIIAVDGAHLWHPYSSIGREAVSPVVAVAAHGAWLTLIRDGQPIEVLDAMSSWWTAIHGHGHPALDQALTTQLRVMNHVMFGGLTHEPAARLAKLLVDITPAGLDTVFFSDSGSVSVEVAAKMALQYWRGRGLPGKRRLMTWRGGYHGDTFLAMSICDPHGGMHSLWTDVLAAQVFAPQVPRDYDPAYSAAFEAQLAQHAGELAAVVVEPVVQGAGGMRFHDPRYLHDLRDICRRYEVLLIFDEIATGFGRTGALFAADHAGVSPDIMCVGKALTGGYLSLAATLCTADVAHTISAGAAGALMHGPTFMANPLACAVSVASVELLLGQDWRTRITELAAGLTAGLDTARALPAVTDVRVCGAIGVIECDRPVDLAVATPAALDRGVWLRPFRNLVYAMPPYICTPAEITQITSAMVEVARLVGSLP
# [10] = miR-122 activators in hepatoma reporter cells, dose response, cell-based, Huh7 psiCHECK-miR122, Renilla luciferase, cherry-picked (AID 651956); assay type: functional;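 also: huh7 hepatoma cells stably carrying a psiCHECK-2 miR-122 sensor plasmid; renilla luciferase signal reporting endogenous miR-122 activity after 48 h compound exposure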
# [11] = Luminescence-based cell-based high throughput dose response assay to identify activators of the DAF-12 from the parasite S. stercoralis (ssDAF-12).; assay type: functional
# [12] = biological target: T5, Oxysterols receptor LXR-beta (Homo sapiens, UniProt P55055); experiment: LXR agonists, Gal4 luciferase reporter, dose response, counter-screen for ssDAF-12 agonist project, cell-based, luminescence, HEK293, S. stercoralis campaign (AID 720737); assay type: functional; settings: read-out: IC50 (the source's name)
# T5 sequence (P55055 whole entry): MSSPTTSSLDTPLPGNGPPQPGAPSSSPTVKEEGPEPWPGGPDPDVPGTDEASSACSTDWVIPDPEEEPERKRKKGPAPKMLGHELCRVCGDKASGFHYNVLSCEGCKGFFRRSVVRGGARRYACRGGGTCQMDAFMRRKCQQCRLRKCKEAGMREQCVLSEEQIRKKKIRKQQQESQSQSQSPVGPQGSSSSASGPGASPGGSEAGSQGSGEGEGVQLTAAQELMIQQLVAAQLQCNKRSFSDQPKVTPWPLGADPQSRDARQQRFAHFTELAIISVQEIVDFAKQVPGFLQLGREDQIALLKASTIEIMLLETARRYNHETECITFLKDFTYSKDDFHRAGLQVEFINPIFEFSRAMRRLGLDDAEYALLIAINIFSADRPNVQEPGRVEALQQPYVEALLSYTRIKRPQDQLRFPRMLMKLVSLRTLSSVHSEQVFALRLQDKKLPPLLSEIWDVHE
# [13] = biological target: T6, Apoptotic protease-activating factor 1 (Homo sapiens, UniProt O14727); assay type: functional
# T6 sequence (O14727 whole entry): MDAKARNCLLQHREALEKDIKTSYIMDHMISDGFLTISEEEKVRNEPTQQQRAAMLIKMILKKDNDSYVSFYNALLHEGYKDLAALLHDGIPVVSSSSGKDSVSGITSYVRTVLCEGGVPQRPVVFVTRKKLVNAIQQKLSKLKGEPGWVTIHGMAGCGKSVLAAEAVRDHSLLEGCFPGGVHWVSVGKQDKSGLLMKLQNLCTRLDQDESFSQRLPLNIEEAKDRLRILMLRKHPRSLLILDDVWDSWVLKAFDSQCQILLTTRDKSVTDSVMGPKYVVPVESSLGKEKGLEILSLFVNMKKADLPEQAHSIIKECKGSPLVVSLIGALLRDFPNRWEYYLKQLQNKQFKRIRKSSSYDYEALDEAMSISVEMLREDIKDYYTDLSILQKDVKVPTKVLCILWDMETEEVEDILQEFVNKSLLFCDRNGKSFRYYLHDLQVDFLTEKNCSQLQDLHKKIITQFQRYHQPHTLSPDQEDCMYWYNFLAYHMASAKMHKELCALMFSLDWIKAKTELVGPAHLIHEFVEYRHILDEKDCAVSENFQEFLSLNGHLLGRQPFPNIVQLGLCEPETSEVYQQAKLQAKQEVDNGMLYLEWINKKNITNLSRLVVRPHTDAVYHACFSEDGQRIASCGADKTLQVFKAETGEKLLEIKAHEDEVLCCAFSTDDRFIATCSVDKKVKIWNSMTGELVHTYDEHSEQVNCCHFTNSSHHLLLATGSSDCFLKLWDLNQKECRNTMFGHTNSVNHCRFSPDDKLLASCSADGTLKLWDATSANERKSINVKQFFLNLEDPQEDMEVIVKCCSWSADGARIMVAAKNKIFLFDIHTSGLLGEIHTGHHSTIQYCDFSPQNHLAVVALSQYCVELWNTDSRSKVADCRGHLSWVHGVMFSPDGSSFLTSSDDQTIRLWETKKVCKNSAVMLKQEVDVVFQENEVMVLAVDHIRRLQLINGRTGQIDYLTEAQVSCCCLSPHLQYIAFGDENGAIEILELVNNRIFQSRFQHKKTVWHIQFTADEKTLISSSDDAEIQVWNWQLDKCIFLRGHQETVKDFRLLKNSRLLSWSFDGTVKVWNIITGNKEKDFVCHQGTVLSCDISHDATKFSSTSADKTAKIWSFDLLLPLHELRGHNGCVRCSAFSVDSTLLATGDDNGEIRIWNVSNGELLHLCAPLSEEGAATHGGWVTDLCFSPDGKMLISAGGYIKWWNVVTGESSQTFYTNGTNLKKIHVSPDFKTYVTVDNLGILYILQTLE
# Genome polyprotein = Genome polyprotein (dengue virus type 2, UniProt P29990); experiment: Dengue-2 NS5 methyltransferase inhibitors, primary screen, biochemical, confirmation dose response (AID 588689); assay type: functional
# [14] = biological target: T7, Sentrin-specific protease 8 (Homo sapiens, UniProt Q96LD8); assay type: functional
# T7 sequence (Q96LD8 whole entry): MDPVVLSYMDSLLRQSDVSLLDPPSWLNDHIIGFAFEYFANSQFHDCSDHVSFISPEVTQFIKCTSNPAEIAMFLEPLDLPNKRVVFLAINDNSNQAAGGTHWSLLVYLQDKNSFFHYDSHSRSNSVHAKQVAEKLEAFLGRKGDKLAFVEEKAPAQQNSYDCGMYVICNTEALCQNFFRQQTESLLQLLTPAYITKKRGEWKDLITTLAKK
# [15] = biological target: T7, Sentrin-specific protease 8; assay type: functional; remark: listed apart in the source
# Caspase-6 = biological target: T8, Caspase-6 (Homo sapiens, UniProt P55212); experiment: human caspase-6 inhibitors, dose response, biochemical, VEID-R110 fluorescence, cherry-pick (AID 720632)
# T8 sequence (P55212 whole entry): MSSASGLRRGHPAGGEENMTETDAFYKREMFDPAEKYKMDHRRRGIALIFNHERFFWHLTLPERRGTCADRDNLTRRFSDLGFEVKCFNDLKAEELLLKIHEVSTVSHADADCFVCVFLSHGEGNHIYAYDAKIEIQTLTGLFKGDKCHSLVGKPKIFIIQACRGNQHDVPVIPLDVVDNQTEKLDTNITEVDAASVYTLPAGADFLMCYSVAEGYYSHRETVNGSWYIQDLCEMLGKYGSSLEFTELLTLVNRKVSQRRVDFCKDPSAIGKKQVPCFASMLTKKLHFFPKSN
# [16] = inhibitors of HIV Env-driven cell fusion, dose response, cherry-pick (AID 652057); assay type: functional, cell-based
# [17] = ZM109 Env clade C HIV-1 fusion inhibitors, dose response, HeLa effector, CEM target cells, luciferase, cherry-pick (AID 652058); assay type: functional, cell-based
# [18] = off-target signal loss in HeLa-CEM21 co-culture – HeLa F-luc CTL cells, cherry-picked, counter-screen for HIV-1 Env fusion inhibitor project, dose response (AID 652040); assay type: functional, cell-based;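 also: potency for signal decrease marking cytotoxic or nonspecific inhibition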
# [19] = inhibitors of clade B AD8 Env fusion, dose response, cell-based, cherry-pick (AID 652062); assay type: functional;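 also: luciferase signal from cell-cell fusion driven by HIV-1 clade B AD8 Env; potency is for inhibitors of fusion seen as a drop in luminescence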
# T1 sequence (P65502 whole entry): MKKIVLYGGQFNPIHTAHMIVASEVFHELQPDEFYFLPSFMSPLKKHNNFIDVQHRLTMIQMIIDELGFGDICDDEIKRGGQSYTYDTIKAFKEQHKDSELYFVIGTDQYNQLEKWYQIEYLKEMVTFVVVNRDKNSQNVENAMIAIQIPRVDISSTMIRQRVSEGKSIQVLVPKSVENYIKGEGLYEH
# Sequence of Genome polyprotein (P29990 2492-3391 limits assumed): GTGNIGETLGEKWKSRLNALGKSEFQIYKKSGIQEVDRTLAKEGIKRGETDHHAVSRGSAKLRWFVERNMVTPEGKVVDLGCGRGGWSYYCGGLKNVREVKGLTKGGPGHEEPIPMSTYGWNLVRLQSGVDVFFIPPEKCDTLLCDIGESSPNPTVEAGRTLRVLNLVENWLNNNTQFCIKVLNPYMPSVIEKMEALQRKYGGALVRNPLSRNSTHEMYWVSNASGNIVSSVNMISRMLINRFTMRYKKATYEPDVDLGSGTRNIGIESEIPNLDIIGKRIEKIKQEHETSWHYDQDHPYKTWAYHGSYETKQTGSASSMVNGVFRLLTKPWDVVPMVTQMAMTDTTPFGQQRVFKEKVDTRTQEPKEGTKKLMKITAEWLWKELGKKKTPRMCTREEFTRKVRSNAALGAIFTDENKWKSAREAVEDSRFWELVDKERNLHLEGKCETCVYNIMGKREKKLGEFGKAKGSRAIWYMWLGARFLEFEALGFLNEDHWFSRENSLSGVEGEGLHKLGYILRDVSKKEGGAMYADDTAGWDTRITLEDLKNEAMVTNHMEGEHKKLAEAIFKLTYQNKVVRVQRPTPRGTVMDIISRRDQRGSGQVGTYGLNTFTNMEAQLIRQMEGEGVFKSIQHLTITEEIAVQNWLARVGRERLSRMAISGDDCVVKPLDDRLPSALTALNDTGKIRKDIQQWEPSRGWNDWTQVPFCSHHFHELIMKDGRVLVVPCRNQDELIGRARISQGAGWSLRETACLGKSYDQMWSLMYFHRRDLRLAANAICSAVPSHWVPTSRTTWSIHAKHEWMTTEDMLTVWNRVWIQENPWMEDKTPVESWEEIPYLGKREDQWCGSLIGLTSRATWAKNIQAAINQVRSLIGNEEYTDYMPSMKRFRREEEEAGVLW
# Sequence of FAD-linked sulfhydryl oxidase ALR (P55789 whole entry): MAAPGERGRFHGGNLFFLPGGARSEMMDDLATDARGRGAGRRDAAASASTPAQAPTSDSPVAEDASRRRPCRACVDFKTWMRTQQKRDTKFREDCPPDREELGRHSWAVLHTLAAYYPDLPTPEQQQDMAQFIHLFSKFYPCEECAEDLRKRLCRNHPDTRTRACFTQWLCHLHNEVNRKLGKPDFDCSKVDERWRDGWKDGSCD
smiles,measurement,setting,value
C/C=C\C=C/C(=O)Nc1cccc(C2=NOC3(C2)C[C@@H](C(N)=O)N(C(=O)COc2ccc(Cl)cc2)C3)c1 (some centres undefined),IC50,[1],10.7 µM (active)
same,IC50,[2],17.3 µM (active)
CCOC(=O)N1CCN(C(S)=Nc2ccc3nc(N4CCN(CC)CC4)cc(C)c3c2)CC1,AC50,[3],15 µM (active)
CN(C)CCCN1c2ccccc2Sc2ccc(Cl)cc21 [CHLORPROMAZINE HYDROCHLORIDE],EC50,[4],> 20 µM (not active)
same,CC50,[5],26 µM (active)
same,EC50,[6],> 20 µM (not active)
same,AC50,[7],1.01 µM (active)
same,AC50,[3],< 25.3 µM (active)
CCN(CC)CCNC(=O)c1cn(CC)c2ccc(S(=O)(=O)N3CCc4ccccc4C3)cc2c1=O,IC50,[8],11.2 µM (active)
same,AC50,[9],2.88 µM (active)
CC(=O)N(C[C@H]1N[C@H](CO)[C@@H]1c1ccc(-c2ccccc2)cc1)C(C)C,AC50,[10],23.3 µM (active)
O=C(c1ccc([N+](=O)[O-])cc1)N1CCOCC1,IC50,[11],> 67.4 µM (inactive)
same,EC50,[12],> 67.4 µM (inactive)
COc1ccc(OCCNc2c([N+](=O)[O-])c(=O)oc3ccccc23)cc1,IC50,[13],4.61 µM (active)
COC(=O)CCC(=O)OC1(C)C(=O)C2=CN(CC3CC3)C(c3ccc(OC)cc3)=CC2=C(Br)C1=O (centres undefined),IC50,[13],31.7 µM (active)
same,IC50,Genome polyprotein,30.5 µM (active)
Cc1[nH]cnc1CN1CCc2c(c3ccccc3n2C)C1=O [ALOSETRON HYDROCHLORIDE],IC50,[14],18.2 µM (active)
same,IC50,[15],7.1 µM (active)
same,AC50,Caspase-6,11.5 µM (active)
COc1ccc(CSc2nnc3nc(O)cc(N)n23)cc1,IC50,[11],> 67.6 µM (inactive)
same,EC50,[12],> 67.6 µM (inactive)
COc1ccc([C@@H]2[C@@H]3C(=O)N(C(C)(C)C)C(=O)[C@@H]3[C@]3(CC(C)C)C(=O)N(c4cccc(Br)c4)C(=O)N23)cc1,AC50,[16],< 0.26 µM (active)
same,AC50,[17],< 0.26 µM (active)
same,AC50,[18],< 0.26 µM (active)
same,AC50,[19],< 0.26 µM (active)
COC/C=C/C1=CC2=CC(=O)C(C)(OC(=O)c3cnc4ccccc4n3)C(=O)C2=CN1C1CC1 (centres undefined),IC50,Genome polyprotein,> 100 µM (active)
same,IC50,[14],16.6 µM (active)
same,IC50,[15],6.36 µM (active)
COc1cc(C(=O)N2Cc3cc4ccccc4nc3C2C)cc(OC)c1OC (centres undefined),AC50,[9],2.01 µM (active)
